In patent US12384808B2, “Modulators of TNF-α activity” (Forward Therapeutics, Inc., priority 2022, dated 2025) one finds IC50 data, which are given here for 8 molecules.

A value given as a limit tells only on which side of the number the result lay.

In general, IC50 refers to the concentration that gives 50% inhibition.

Chain of TNFα (P01375 77-233 limits assumed): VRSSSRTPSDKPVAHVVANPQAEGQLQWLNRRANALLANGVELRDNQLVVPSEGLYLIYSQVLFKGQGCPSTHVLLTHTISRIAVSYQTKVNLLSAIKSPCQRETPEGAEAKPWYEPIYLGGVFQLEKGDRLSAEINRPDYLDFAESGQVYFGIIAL

The experiment has as its target TNFα (Homo sapiens, UniProt P01375). Briefly: TNFα Induced HEK Blue Cellular Assay. The experiment is classed as cell-based. The conditions noted are these: HEK Blue TNFα reporter cells, TNFα 100 pg/ml, 24 hrs at 37° C., secreted alkaline phosphatase (QUANTI-Blue) read at 620 nm; read-out: IC50 value. Summed up:
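Reporter cells (10,000/well, DMEM + 10% FBS) with compound (final […] to 0.5 nM) stimulated with 100 pg/ml TNFα, 24 h at 37 °C, 5% CO2. Secreted alkaline phosphatase read at 620 nm; IC50 by 4-parameter logistic fit after background correction against stimulated/unstimulated DMSO controls.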
Consider `[2H]C([2H])([2H])N1C(=O)c2cccc(OC(F)F)c2[C@H]2C[C@@H]1c1nc3ccc(-c4ccc(P(=O)(CC)CC)nc4)cc3n12` [Example 126, (7R,14R)-11-(6-(diethylphosphoryl)pyridin-3-yl)-1-(difluoromethoxy)-6-(methyl-d3)-6,7-dihydro-7,14-methanobenzo[f]benzo[4,5]imidazo[1,2-a][1,4]diazocin-5(14H)-one], for which the IC50 was < 100 nM.

Consider `[2H]C([2H])([2H])N1C(=O)c2cccc(OC(F)F)c2[C@H]2C[C@@H]1c1nc3ccc(-c4cnc(P(=O)(CC)CC)c(F)c4)cc3n12` [Example 127, (7R,14R)-11-(6-(diethylphosphoryl)-5-fluoropyridin-3-yl)-1-(difluoromethoxy)-6-(methyl-d3)-6,7-dihydro-7,14-methanobenzo[f]benzo[4,5]imidazo[1,2-a][1,4]diazocin-5(14H)-one], for which the IC50 is < 100 nM.

On to `[2H]C([2H])([2H])N1C(=O)c2cccc(OC(F)(F)F)c2[C@H]2C[C@@H]1c1nc3ccc(-c4ccc(P(C)(C)=O)c(F)c4)cc3n12` [Example 128, (7R,14R)-11-(4-(dimethylphosphoryl)-3-fluorophenyl)-6-(methyl-d3)-1-(trifluoromethoxy)-6,7-dihydro-7,14-methanobenzo[f]benzo[4,5]imidazo[1,2-a][1,4]diazocin-5(14H)-one], for which the IC50 was < 100 nM.

As to `[2H]C([2H])([2H])N1C(=O)c2cccc(OC(F)F)c2[C@H]2C[C@@H]1c1nc3ccc(-c4cc(F)c(P(C)(C)=O)c(OC)c4)cc3n12` [Example 129, (7R,14R)-1-(difluoromethoxy)-11-(4-(dimethylphosphoryl)-3-fluoro-5-methoxyphenyl)-6-(methyl-d3)-6,7-dihydro-7,14-methanobenzo[f]benzo[4,5]imidazo[1,2-a][1,4]diazocin-5(14H)-one], the IC50 was < 100 nM.

`[2H]C([2H])([2H])N1C(=O)c2cccc(OC(F)F)c2[C@H]2C[C@@H]1c1nc3ccc(-c4cc(F)c(P(C)(C)=O)cc4OC)cc3n12` [Example 130, (7R,14R)-1-(difluoromethoxy)-11-(4-(dimethylphosphoryl)-5-fluoro-2-methoxyphenyl)-6-(methyl-d3)-6,7-dihydro-7,14-methanobenzo[f]benzo[4,5]imidazo[1,2-a][1,4]diazocin-5(14H)-one]: the IC50 is < 100 nM.

Turning to `[2H]C([2H])([2H])N1C(=O)c2cccc(OC(F)F)c2[C@H]2C[C@@H]1c1nc3ccc(-c4cc(N)c(P(C)(C)=O)c(F)c4)cc3n12` [Example 131, (7R,14R)-11-(3-amino-4-(dimethylphosphoryl)-5-fluorophenyl)-1-(difluoromethoxy)-6-(methyl-d3)-6,7-dihydro-7,14-methanobenzo[f]benzo[4,5]imidazo[1,2-a][1,4]diazocin-5(14H)-one], the IC50 is 10000 to 30000 nM.

Regarding `[2H]C([2H])([2H])N1C(=O)c2cccc(OC(F)F)c2[C@H]2C[C@@H]1c1nc3ccc(-c4cc(C)c(P(C)(C)=O)c(F)n4)cc3n12` [Example 132, (7R,14R)-1-(difluoromethoxy)-11-(5-(dimethylphosphoryl)-6-fluoro-4-methylpyridin-2-yl)-6-(methyl-d3)-6,7-dihydro-7,14-methanobenzo[f]benzo[4,5]imidazo[1,2-a][1,4]diazocin-5(14H)-one], the IC50 was < 100 nM.

For `[2H]C([2H])([2H])N1C(=O)c2cccc(OC(F)F)c2[C@H]2C[C@@H]1c1nc3ccc(-c4cc(F)c(P(C)(C)=O)c(C#N)c4)cc3n12` [Example 133, 5-((7R,14R)-1-(difluoromethoxy)-6-(methyl-d3)-5-oxo-5,6,7,14-tetrahydro-7,14-methanobenzo[f]benzo[4,5]imidazo[1,2-a][1,4]diazocin-11-yl)-2-(dimethylphosphoryl)-3-fluorobenzonitrile], the IC50 is < 100 nM.
